In patent US12180185B2, “Compound as protein kinase inhibitor, and pharmaceutical composition comprising thereof” (HK INNO.N Corporation, priority 2018, dated 2024):

Target: JAK1 (Homo sapiens (Human), UniProt P23458)
Assay: Analysis of JAK1 activity inhibitory capacity (ADP-Glo Kinase assay)
Assay type: biochemical
Settings: JAK1 enzyme, ATP 250 uM, IRS-1tide substrate, 30° C. 40 minutes, luminescence
Procedure: Experimental Example 1: Analysis of JAK1 activity inhibitory capacity (ADP-Glo™ Kinase assay)
An inhibitory effect of the inventive compound on JAK was identified as follows.
A control material and a test material were prepared through dilution at each concentration by using DMSO. At the same time, ATP (250 uM) and JAK's substrate (JAK1, IRS-1tide 40 ng/mL) were prepared through dilution in kinase buffer (40 mM Tris-HCl pH 7.5, 20 mM MgCl2, 0.5 mg/mL BSA, 50 uM DTT).
A test drug for each concentration, the substrate, the ATP and JAK enzymes were mixed in an eppendorf tube, and then subjected to reaction in an incubator at 30° C. for 40 minutes.
ADP-Glo ? reagent included in ADP-Glo™ Kinase Enzyme System (Promega, USA, V9571) was added to each eppendorf tube, and then subjected to reaction in the incubator at 30° C. for 40 minutes.
A kinase detection reagent included in the ADP-Glo™ Kinase Enzyme System was inserted into the eppendorf tube, after which luminescence was measured by using Wallac Victor 2TM with an integration time set to 1 second, such that an inhibitory capacity of the test material on JAKs phosphorylation was analyzed. A concentration of the compound, at which JAK enzyme activity inhibition occurs 50% compared to the control group, was determined as IC50 (nM) of an inhibitor.

Chain of JAK1 (P23458 whole entry): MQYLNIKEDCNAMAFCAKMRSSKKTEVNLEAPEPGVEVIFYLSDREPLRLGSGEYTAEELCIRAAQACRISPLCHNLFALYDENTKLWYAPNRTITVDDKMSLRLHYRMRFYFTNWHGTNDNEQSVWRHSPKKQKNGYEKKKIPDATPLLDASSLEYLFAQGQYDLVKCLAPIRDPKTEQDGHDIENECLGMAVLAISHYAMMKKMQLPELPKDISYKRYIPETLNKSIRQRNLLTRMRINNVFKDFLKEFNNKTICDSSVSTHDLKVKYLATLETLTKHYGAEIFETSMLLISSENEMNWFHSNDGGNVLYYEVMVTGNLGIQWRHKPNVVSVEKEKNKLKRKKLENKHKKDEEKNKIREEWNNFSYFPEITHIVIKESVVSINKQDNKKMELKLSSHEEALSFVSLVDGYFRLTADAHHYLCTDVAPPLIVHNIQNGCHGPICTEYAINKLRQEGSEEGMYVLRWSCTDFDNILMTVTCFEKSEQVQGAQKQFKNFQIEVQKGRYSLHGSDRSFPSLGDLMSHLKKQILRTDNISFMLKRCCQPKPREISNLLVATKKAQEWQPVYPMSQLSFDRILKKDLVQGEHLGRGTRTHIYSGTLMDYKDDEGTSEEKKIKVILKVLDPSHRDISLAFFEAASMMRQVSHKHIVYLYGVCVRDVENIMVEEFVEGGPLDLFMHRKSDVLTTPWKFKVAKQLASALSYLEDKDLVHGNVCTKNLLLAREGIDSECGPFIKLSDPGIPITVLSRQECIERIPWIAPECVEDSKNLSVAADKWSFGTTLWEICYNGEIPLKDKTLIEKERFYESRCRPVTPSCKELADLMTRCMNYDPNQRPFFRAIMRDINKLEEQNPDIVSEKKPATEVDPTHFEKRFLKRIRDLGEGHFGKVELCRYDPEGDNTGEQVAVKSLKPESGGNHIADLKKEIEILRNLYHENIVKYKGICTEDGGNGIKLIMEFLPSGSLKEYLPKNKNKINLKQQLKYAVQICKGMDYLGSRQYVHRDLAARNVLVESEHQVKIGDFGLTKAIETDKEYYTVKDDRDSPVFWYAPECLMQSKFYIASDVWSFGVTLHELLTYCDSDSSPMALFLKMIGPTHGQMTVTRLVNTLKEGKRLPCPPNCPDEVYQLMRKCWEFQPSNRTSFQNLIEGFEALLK

Question: For `N#Cc1cc(C(=O)Nc2cccc3c2ccn3-c2ccnc(NC(=O)C3CC3)c2)ccn1` [Example 51, 2-cyano-N-(1-(2-(cyclopropanecarboxamido)pyridin-4-yl)-1H-indol-4-yl)isonicotinamide], which IC50 is on record?
Answer: > 1 µM

Question: With `O=C(Nc1cccc2c1ccn2-c1ccnc(NC(=O)C2CC2)c1)c1ccnc(F)c1` [Example 52, N-(1-(2-(cyclopropanecarboxamido)pyridin-4-yl)-1H-indol-4-yl)-2-fluoroisonicotinamide] as the molecule, how does the IC50 read?
Answer: > 1 µM

Question: For `O=C(Nc1cccc2c1ccn2-c1ccnc(NC(=O)C2CC2)c1)c1ccnc(F)c1F` [Example 53, N-(1-(2-(cyclopropanecarboxamido)pyridin-4-yl)-1H-indol-4-yl)-2,3-difluoroisonicotinamide], which IC50 is on record?
Answer: 0.1 to 1 µM

Question: How did the IC50 turn out when `CC(C#N)C(=O)Nc1cccc2c1ccn2-c1ccnc(NC(=O)C2CC2)c1` (stereo not drawn) [Example 54, N-(4-(4-(2-cyanopropanamido)-1H-indol-1-yl)pyridin-2-yl)cyclopropanecarboxamide] was run?
Answer: 0.1 to 1 µM

Question: `O=C(Nc1cccc2c1ccn2-c1ccnc(NC(=O)C2CC2)c1)c1cc[nH]n1` [Example 55, N-(1-(2-(cyclopropanecarboxamido)pyridin-4-yl)-1H-indol-4-yl)-1H-pyrazole-3-carboxamide] was tested. Which IC50 did it give?
Answer: > 1 µM

Question: For `COc1ccc(C(=O)Nc2cccc3c2ccn3-c2ccnc(NC(=O)C3CC3)c2)cc1F` [Example 56, N-(1-(2-(cyclopropanecarboxamido)pyridin-4-yl)-1H-indol-4-yl)-3-fluoro-4-methoxybenzamide], which IC50 is on record?
Answer: 0.1 to 1 µM

Question: For `N#C[C@H]1C[C@H]1C(=O)Nc1cccc2c1ccn2-c1ccnc(NC(=O)C2CC2)c1` [Example 57, (1R,2S)-2-cyano-N-(1-(2-(cyclopropanecarboxamido)pyridin-4-yl)-1H-indol-4-yl) cyclopropane-1-carboxamide], which IC50 is on record?
Answer: < 0.1 µM

Question: `N#CC1(CC(=O)Nc2cccc3c2ccn3-c2ccnc(NC(=O)C3CC3)c2)CC1` [Example 58, N-(4-(4-(2-(1-cyanocyclopropyl)acetamido)-1H-indol-1-yl)pyridin-2-yl)cyclopropane carboxamide] was tested. Which IC50 did it give?
Answer: 0.1 to 1 µM

Question: Which IC50 does the source give for `Cc1ccc(C(=O)Nc2cccc3c2ccn3-c2ccnc(NC(=O)C3CC3)c2)cn1` [Example 59, N-(1-(2-(cyclopropanecarboxamido)pyridin-4-yl)-1H-indol-4-yl)-6-methylnicotinamide] here?
Answer: > 1 µM

Question: `CC(C)=C(C)C(=O)Nc1cccc2c1ccn2-c1ccnc(NC(=O)C2CC2)c1` [Example 60, N-(4-(4-(2,3-dimethylbut-2-enamido)-1H-indol-1-yl)pyridin-2-yl)cyclopropanecarboxamide] was tested. Which IC50 did it give?
Answer: > 1 µM

Question: For `O=C(Nc1ccc(F)cc1F)Nc1cccc2c1ccn2-c1ccnc(NC(=O)C2CC2)c1` [Example 61, N-(4-(4-(3-(2,4-difluorophenyl)ureido)-1H-indol-1-yl)pyridin-2-yl)cyclopropanecarboxamide], which IC50 is on record?
Answer: > 1 µM

Question: Which IC50 does the source give for `O=C(NCC(F)(F)F)Nc1cccc2c1ccn2-c1ccnc(NC(=O)C2CC2)c1` [Example 62, N-(4-(4-(3-(2,2,2-trifluoroethyl)ureido)-1H-indol-1-yl)pyridin-2-yl)cyclopropanecarboxamide] here?
Answer: < 0.1 µM
